Experimental findings from patent US5270472A, “Alkanoyl L-carnitine amides with aminoacids and pharmaceutical compositions containing same for promoting regeneration of the nervous tissue, inhibiting neuronal degeneration, enhancing the process of learning and memory and for the treatment of coma” (Sigma-Tau Industrie Farmaceutiche Riunite S.p.A., priority 1991, dated 1993) are described below.

Structures can show the parent of a compound that is named as a salt.

Data set [1] concerns choline acetyltransferase (ChAT). In words: Choline acetyltransferase (ChAT) activity in PC 12 cells. It counts as cell-based, rat. The conditions noted are these: 1 mM, 6 days. The method, then:
(§1) Rat pheochromocytoma ((PC 12) cells were grown in RPMI 1640, supplemented with 5% heat inactivated horse serum +5% heat inactivated fetal calf serum at 37° C. in humidified incubator with 5% CO2 atmosphere and fed on alternate days. At subconfluency, cells were dislodged by vigorous shaking and reseeded at 1:1 ratio. Acetyl L-carnitine ALCAR® and ST 857 were dissolved in RPMI and added to cells at the final concentrations indicated in the various experiments.
The method described by Fonnum, F. in "A rapid radiochemical method for the determination of choline acetyltransferase". J. of Neurochem. (1975) vol. 24, 407:409 was used. Briefly, the compounds were added to the culture medium at final concentration of 1 mM.
The cells were grown for 6 days in the presence of ST 857. The medium was changed every other day. On the sixth day the cells were harvested and resuspended directly in a homogenization buffer for ChAT activity assay. Protein content was assayed on an aliquot of the cell suspensions.

The next data set deals with PC 12 cells. In words: Neurite outgrowth experiment. It is filed as cell-based, rat. How it is done:
The rat pheochromocytoma (PC 12) cell line was chosen as an in vitro model system for NGF-responsive neurons. PC 12 cells are a cell line derived from a tumor of rat adrenal medulla that display NGFR similar to those described for sympathetic and sensory neurons, PC 12 typically respond to NGF by elongating neurites and developing into electrically excitable cells featuring some characteristics of the post-mitotic cholinergic neuronal phenotype.
as §1
PC 12 cells were plated out into 35 mm Petri dishes at a density 2×10^5 cells/ml. On the sixth day of either ALCAR® or ST 857 treatment (1 mM), the cells were added with NGF dissolved in RPMI 1640 at a suboptimal concentration (i.e. ineffective to stimulate neurite outgrowth) of 1 ng/mL (0.037 nM). On day 5 after addition, 100-120 cells from 5-12 randomly chosen microscope fields were counted and assayed for presence of neurities. […]

For another data set, the system named is HCN-1A cells. Briefly: Effect on cultured human cortical cell line (HCN-1A). It is filed as cell-based. An excerpt:
(§2) The HCN-1A cells are a non-tumoral cell line derived from human cortical neuroblasts which respond to NGF by differentiating into bipolar or multipolar neurite-bearing neurons.
HCN-1A cells show immunoreactivity for different neurotransmitters such as GABA, glutamate, somatostatin, cholccystokinin-8 […] and VIP (vasoactive intestinal polypeptide).

The test system of another data set is NGFR mRNA. In words: NGFR mRNA in HCN-1A cells. It is filed as cell-based, human. The following applies: following ST 857 treatment.
Source text: as §2

A further data set in a line: Tolerability, LD50. The conditions noted are these: mouse, in vivo, mice. The method, then:
In mice, LD50 orally is higher than 2 g/kg; LD50 intraperitoneally is higher than 600 mg/kg.

Data set [2] is described as follows: Tolerability, intraperitoneal or oral. It counts as in vivo.
Setting [3] is: in the presence of NGF (10 ng/mL).

Consider `CC(=O)O[C@H](CC(=O)[O-])C[N+](C)(C)C` [ACETYL L-CARNITINE, acetyl L-carnitine, reference compound], for which the values for the ChAT activity in data set [1] (in the absence of NGF) and in data set [1] (setting [3]) were 33.3 ± 4.2 nmoli ACh/mg/hour and 133.3 ± 4.4 nmoli ACh/mg/hour, respectively.

In general, LD50 refers to the dose at which mortality reaches 50%. For the compound `CC(=O)O[C@H](CC(=O)N[C@@H](CCCNC(=N)N)C(=O)O)C[N+](C)(C)C` [ST 857, L-acetyl L-carnitinamide of L-arginine chloride hydrochloride], the “enhancement of the action of NGF on PC 12 cells” value in the data set on PC 12 cells (compared with ALCAR® treatment) was “enhanced by ST 857 treatment more potently than by ALCAR® treatment”. Further, in the data set with PC 12 cells (in the absence of NGF), the “stimulation of neurite outgrowth (in words)” value is “effective in stimulating neurite outgrowth, even in the absence of NGF”. In addition, the ChAT activity came to 46.6 ± 2.5 nmoli ACh/mg/hour in data set [1] (in the absence of NGF) and 140.0 ± 8.9 nmoli ACh/mg/hour in data set [1] (setting [3]). Also, the “neurite outgrowth and cell differentiation” value in the data set with HCN-1A cells (1 mM) was “resulted in neurite outgrowth and cell differentiation toward the neuronal phenotype”. In the data set on HCN-1A cells (in the presence and in the absence of NGF (10 ng/ml)), the “GABA immunoreactivity and formation of functional synapses” value is “induced also GABA immunoreactivity in HCN-1A and formation of functional synapses”. In addition, the “NGFR mRNA” value in the data set on NGFR mRNA is “increased in these cells following ST 857 treatment, in a manner similar to that elicited by NGF”. Besides, the LD50 in “Tolerability, LD50” (ip, intraperitoneally) was above 600 mg/kg; in the data set “Tolerability, LD50” (po, orally), above 2000 mg/kg. The tolerability result in data set [2] is given as “well tolerated”.
